# From PubChem BioAssay (NCI)
#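 Five concentrations, 48 hours, 96-well plates. GI50 marks 50% less growth. TGI: total growth inhibition.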
# Key:
# Experiment in all cases: NCI-60 cell line screen, 48 h
# 786-0 renal = tested on: 786-0 renal
# DU-145 prostate = tested on: DU-145 prostate
# HCC-2998 colon = tested on: HCC-2998 colon
# NCI-H226 lung = tested on: NCI-H226 lung
# NCI-H23 lung = tested on: NCI-H23 lung
# OVCAR-4 ovarian = tested on: OVCAR-4 ovarian
# OVCAR-8 ovarian = tested on: OVCAR-8 ovarian
# RPMI-8226 leukemia = tested on: RPMI-8226 leukemia
# SW-620 colon = tested on: SW-620 colon
# EKVX NSCLC = tested on: EKVX NSCLC
Structure (SMILES),GI50 (786-0 renal) [µM],TGI (786-0 renal) [µM],GI50 (DU-145 prostate) [µM],TGI (DU-145 prostate) [µM],GI50 (HCC-2998 colon) [µM],TGI (HCC-2998 colon) [µM],GI50 (NCI-H226 lung) [µM],TGI (NCI-H226 lung) [µM],GI50 (NCI-H23 lung) [µM],TGI (NCI-H23 lung) [µM],GI50 (OVCAR-4 ovarian) [µM],TGI (OVCAR-4 ovarian) [µM],GI50 (OVCAR-8 ovarian) [µM],TGI (OVCAR-8 ovarian) [µM],GI50 (RPMI-8226 leukemia) [µM],TGI (RPMI-8226 leukemia) [µM],GI50 (SW-620 colon) [µM],TGI (SW-620 colon) [µM],TGI (EKVX NSCLC) [µM]
Oc1ccc(Cl)cc1CNc1nc2ccccc2[nH]1,14.3,31.4,16.2,32.4,16.5,32,19.6,50.2,14.3,33.1,11.4,37.5,12.9,30.8,10,49.5,15.5,31.9,
O=C(O)/C=C/C(=O)N1C/C(=C\c2ccccc2)C(=O)/C(=C/c2ccccc2)C1,,10.6,,,,13.1,,31.3,,23.9,,16.4,,11.7,,6.22,,6.09,44.3
CC12Oc3ccc4ccccc4c3CC1Cc1c(ccc3ccccc13)O2 (stereo not drawn),,> 100,,,,> 100,,> 100,,> 100,,90.6,,> 100,,,,> 100,> 100
Cc1nc(Nc2nc3ccccc3o2)nc(-c2cccc([N+](=O)[O-])c2)c1C(=O)Nc1ccc(F)c(Cl)c1,3.18,> 100,2.95,> 100,3.26,> 100,3.05,> 100,2.19,18.8,1.62,35,2.44,> 100,0.724,4.26,3.09,> 100,
O=C(O)CCSC(=O)Nc1ccc(N=Nc2ccccc2)cc1,,> 100,,,,> 100,,> 100,,> 100,,> 100,,> 100,,> 100,,> 100,> 100
O=C(Nc1ccc(Cl)c(Cl)c1)OCCN1c2ccccc2Sc2ccccc21,,> 10,,> 10,,> 10,,,,> 10,,> 10,,> 10,,> 10,,> 10,
CN(C)C(=S)/N=c1\ss/c(=N\S(=O)(=O)c2ccccc2)n1N(C)C,,> 100,,,,> 100,,> 100,,,,> 100,,> 100,,> 100,,> 100,> 100
c1ccc2c(c1)C1=NCCN1c1ccccc1-2,,10,,,,18.8,,,,6.65,,10.2,,11.5,,6.97,,11.6,35.5
CCC(Oc1ccc(OC)c2ccccc(=O)c12)C(=O)O (stereo not drawn),,> 100,,,,> 100,,> 100,,> 100,,> 100,,> 100,,> 100,,> 100,> 100
O=C(NS(=O)(=O)c1ccccc1)C(Cc1ccccc1)C(Cc1ccccc1)C(=O)NS(=O)(=O)c1ccccc1 (stereo not drawn),,> 100,,,,> 100,,> 100,,> 100,,> 100,,> 100,,> 100,,> 100,> 100
CN1CC(=O)N(C)c2nc[nH]c2C1=O,,> 100,,,,> 100,,> 100,,> 100,,> 100,,> 100,,> 100,,> 100,> 100
